{"source": "paper PMC8835363", "about": "“Arachidin-1, a Prenylated Stilbenoid from Peanut, Induces Apoptosis in Triple-Negative Breast Cancer Cells” (International Journal of Molecular Sciences, 2022)", "assay_type_in_all_cases": "cell-based, human", "key": {"MDA-MB-231 cells [1]": {"tested_on": "MDA-MB-231 cells", "assay": "RealTime-Glo MT cell viability (cytotoxicity) assay", "conditions": "for IC50: Homo sapiens", "method": "(§1) The cytotoxicity of RES, A-1, and A-3 was measured using the RealTime-Glo^TM MT Cell Viability Assay (Promega, Madison, WI, USA). The cells (10,000 cells/well) were seeded into 96-well plates. […] Cells with 0.1% DMSO (ATCC; Manassas, VA, USA) were included as a control. Luminescence was measured every 12 h for 72 total hours in a Cytation^TM 5 (BioTek, Winooski, VT, USA) plate reader. All experiments were performed in triplicates."}, "MDA-MB-436 cells [2]": {"tested_on": "MDA-MB-436 cells", "assay": "RealTime-Glo MT cell viability (cytotoxicity) assay", "conditions": "for IC50: Homo sapiens", "method": "as §1"}, "MDA-MB-231 cells [3]": {"tested_on": "MDA-MB-231 cells", "assay": "Cell cycle analysis with PI (flow cytometry)", "method": "(§2) Cells were seeded onto 6-well plates and treated with A-1 (0.1 µM and 1 µM) for 24, 48, and 72 h. Cells incubated with 0.01% DMSO (ATCC; Manassas, VA, USA) were used as a control. Then, MDA-MB-231 and MCF-10A cells were collected by trypsinization; MDA-MB-436 cells were collected by scraping. Treated cells were fixed with ice-cold 70% ethanol while vortexing and incubated for 1 h in 4 °C. Then, cells were washed with cold 1X DPBS, treated with 1 mg/mL of ribonuclease A, and incubated for 30 min at 37 °C. The cells were then stained with 10 µg/mL of propidium iodide (PI), incubated for 30 min at 37 °C, and analyzed by flow cytometry using BD FACS Aria Sorter (BD Biosciences, Franklin Lakes, NJ, USA). Data were analyzed with Modfit LT 5.0 software (Verity Software House; Topsham, ME, USA). All experiments were performed in triplicates."}, "MCF-10A cells": {"tested_on": "MCF-10A cells", "assay": "Cell cycle analysis with PI (flow cytometry)", "conditions": "0.1 and 1 µM, 24, 48, 72 h", "method": "as §2"}, "MDA-MB-436 cells [4]": {"tested_on": "MDA-MB-436 cells", "assay": "Cell cycle analysis with PI (flow cytometry)", "method": "as §2"}, "[5]": {"tested_on": "caspase-8, 9, PARP, and survivin proteins in MDA-MB-231 cells", "assay": "Western blot of caspase-8, caspase-9, PARP and survivin", "conditions": "0.1 and 1 µM, 24 h", "method": "(§3) MDA-MB-231 and MDA-MB-436 cells (10^7 and 5 × 10^6 cells/3 mL medium, respectively) were seeded in a 6-well cell culture plate. After 24 h, the cells were treated with A-1 (0.1 µM and 1 µM) for 24 h. Cells treated with 0.01% DMSO (ATCC; Manassas, VA, USA) were included as a control. Protein extracts were prepared using RIPA Lysis and Extraction Buffer plus Halt™ Protease Inhibitor Cocktail (Thermo Fisher Scientific; Waltham, MA, USA). The protein concentration was measured using the Bradford assay (Thermo Fisher Scientific; Waltham, MA, USA). Protein extracts (60 µg) with 5 µL of 2X Novex™ Tris-Glycine SDS Sample Buffer (Thermo Fisher Scientific; Waltham, MA, USA) and 1% dithiothreitol (DTT; Thermo Fisher Scientific; Waltham, MA, USA) were denatured and separated by electrophoresis using SDS-PAGE in 10% Tris-Glycine pre-cast gel (Novex™ WedgeWell™, Thermo Fisher Scientific; Waltham, MA, USA). The gel was run in 1X Novex™ Tris-Glycine SDS running buffer (Thermo Fisher Scientific; Waltham, MA, USA) at a constant 125 voltage for 90 min. The proteins were transferred into Trans-Blot Turbo Mini 0.2 µm PVDF membranes (Bio-Rad Laboratories; Hercules, CA, USA) using the Trans Blot Turbo System (Bio-Rad Laboratories; Hercules, CA, USA) at 1.3 amp and up to 25 volts for 7 min. After the membranes dried completely, they were incubated in 1X Tris Buffered Saline (TBS; Bio-Rad; Hercules, CA, USA) for 5 min at room temperature. Then, the membranes were blocked with 5% non-fat dry milk in 1X TBS containing 1% Tween 20 (TBST; Bio-Rad; Hercules, CA, USA) for 1 h at room temperature. The membranes were incubated with specific primary antibodies at 4 °C overnight. The primary antibodies and dilutions included rabbit anti-caspase-8 (D35G2) mAb (1:500; Cell Signaling Technology; Danvers, MA, USA), rabbit anti-PARP mAb (1:500; Cell Signaling Technology; Danvers, MA, USA), rabbit anti-human survivin polyclonal antibody (0.5 µg/mL; R&D Systems; Minneapolis, MN, USA), mouse anti-human caspase-9 mAb (1 µg/mL; R&D Systems; Minneapolis, MN, USA), mouse anti-vinculin antibody (2 µg/mL; R&D Systems; Minneapolis, MN, USA), and mouse anti-human GAPDH antibody (0.05 µg/mL; R&D Systems; Minneapolis, MN, USA). Afterwards, the membranes were incubated with HRP-conjugated goat anti-rabbit IgG secondary antibody (1:2000; Cell Signaling Technology; Danvers, MA, USA) and HRP-conjugated AffiniPure goat anti-mouse IgG secondary antibody (1:50,000; Jackson Immunoresearch Laboratories; West Grove, PA, USA) for 1 h at room temperature. The membranes were washed with 1X TBST and then incubated with SuperSignal™ West Pico PLUS Chemiluminescent Substrate (Thermo Fisher Scientific; Waltham, MA, USA). The membranes were scanned and analyzed using the Li-COR Odyssey® Fc Imaging System (LI-COR Biosciences; Lincoln, NE, USA)."}, "[6]": {"tested_on": "caspase-8, 9, PARP, and survivin proteins in MDA-MB-436 cells", "assay": "Western blot of caspase-8, caspase-9, PARP and survivin", "conditions": "0.1 and 1 µM, 24 h", "method": "as §3"}}}
{"smiles": "CC(C)/C=C/c1c(O)cc(/C=C/c2ccc(O)c(O)c2)cc1O", "note": "[A-1, arachidin-1]", "values": [{"measurement": "IC50", "setting": "MDA-MB-231 cells [1]; MDA-MB-231, 24 h, MDA-MB-231, 24 h, in Figure 2 panels", "value": 1.84, "unit": "µM"}, {"measurement": "IC50", "setting": "MDA-MB-231 cells [1]; MDA-MB-231, 24 h, MDA-MB-231, 24 h of treatment", "value": 2.68, "unit": "µM"}, {"measurement": "IC50", "setting": "MDA-MB-231 cells [1]; MDA-MB-231, 48 h, MDA-MB-231, 48 h, in Figure 2 panels", "value": 1.42, "unit": "µM"}, {"measurement": "IC50", "setting": "MDA-MB-231 cells [1]; MDA-MB-231, 48 h, MDA-MB-231, 48 h of treatment", "value": 7.82, "unit": "µM"}, {"measurement": "IC50", "setting": "MDA-MB-231 cells [1]; MDA-MB-231, 72 h, MDA-MB-231, 72 h, in Figure 2 panels", "value": 2.51, "unit": "µM"}, {"measurement": "IC50", "setting": "MDA-MB-231 cells [1]; MDA-MB-231, 72 h, MDA-MB-231, 72 h of treatment", "value": 2.51, "unit": "µM"}, {"measurement": "IC50", "setting": "MDA-MB-231 cells [1]; MDA-MB-231, MDA-MB-231, all treatment time points", "value": "~2", "unit": "µM"}, {"measurement": "antiproliferative effect (cell viability vs control)", "setting": "MDA-MB-231 cells [1]; MDA-MB-231, 1 µM, 24, 48, 72 h", "value": "cell proliferation reductions"}, {"measurement": "growth inhibition at low concentrations", "setting": "MDA-MB-231 cells [1]; MDA-MB-231, 0.01-10 µM, 72 h", "value": "higher inhibitory growth effects at lower micromolar concentrations when compared to RES"}, {"measurement": "fold lower IC50 of A-1 than RES", "setting": "MDA-MB-231 cells [1]; MDA-MB-231, 24 h", "value": "six-fold"}, {"measurement": "IC50", "setting": "MDA-MB-436 cells [2]; MDA-MB-436, 24 h, MDA-MB-436, 24 h", "value": 12, "unit": "µM"}, {"measurement": "IC50", "setting": "MDA-MB-436 cells [2]; MDA-MB-436, 24 h, MDA-MB-436, 24 h, in Figure 2 panels", "value": 1.62, "unit": "µM"}, {"measurement": "IC50", "setting": "MDA-MB-436 cells [2]; MDA-MB-436, 48 h, MDA-MB-436, 48 h", "value": 6.2, "unit": "µM"}, {"measurement": "IC50", "setting": "MDA-MB-436 cells [2]; MDA-MB-436, 48 h, MDA-MB-436, 48 h, in Figure 2 panels", "value": 2.74, "unit": "µM"}, {"measurement": "IC50", "setting": "MDA-MB-436 cells [2]; MDA-MB-436, 72 h, MDA-MB-436, 72 h", "value": 2.09, "unit": "µM"}, {"measurement": "IC50", "setting": "MDA-MB-436 cells [2]; MDA-MB-436, 72 h, MDA-MB-436, 72 h, in Figure 2 panels", "value": 2.09, "unit": "µM"}, {"measurement": "IC50", "setting": "MDA-MB-436 cells [2]; MDA-MB-436, MDA-MB-436, all treatment time points", "value": "~2", "unit": "µM"}, {"measurement": "antiproliferative effect (cell viability vs control)", "setting": "MDA-MB-436 cells [2]; MDA-MB-436, 1 µM, 24, 48, 72 h", "value": "cell proliferation reductions"}, {"measurement": "growth inhibition at low concentrations", "setting": "MDA-MB-436 cells [2]; MDA-MB-436, 0.01-10 µM, 72 h", "value": "higher inhibitory growth effects at lower micromolar concentrations when compared to RES"}, {"measurement": "fold lower IC50 of A-1 than A-3", "setting": "MDA-MB-436 cells [2]; MDA-MB-436, 24 h", "value": "nine-fold"}, {"measurement": "fold lower IC50 of A-1 than RES", "setting": "MDA-MB-436 cells [2]; MDA-MB-436, 24 h", "value": "eight-fold"}, {"measurement": "percentage of cells in G2-M phase", "setting": "MDA-MB-231 cells [3]; 0.1 µM, 72 h", "value": "27.73 ± 4.33", "unit": "%"}, {"measurement": "percentage of cells in G2-M phase", "setting": "MDA-MB-231 cells [3]; 1 µM, 24 h", "value": "~31.73 ± 4.00", "unit": "%"}, {"measurement": "percentage of cells in G2-M phase", "setting": "MDA-MB-231 cells [3]; 1 µM, 48 h", "value": "~25.13 ± 0.89", "unit": "%"}, {"measurement": "percentage of cells in G2-M phase", "setting": "MDA-MB-231 cells [3]; 1 µM, 72 h", "value": "31.28 ± 3.45", "unit": "%"}, {"measurement": "cell cycle effect", "setting": "MDA-MB-231 cells [3]; 0.1 and 1 µM", "value": "cell arrest in the G2-M phase"}, {"measurement": "change in cell cycle phase distribution", "setting": "MCF-10A cells", "value": "no significant changes in the percentage of cells at different phases"}, {"measurement": "percentage of cells in G2-M phase", "setting": "MDA-MB-436 cells [4]; 0.1 µM, 48 h", "value": "25.82 ± 2.73", "unit": "%"}, {"measurement": "percentage of cells in G2-M phase", "setting": "MDA-MB-436 cells [4]; 0.1 µM, 72 h", "value": "38.89 ± 0.08", "unit": "%"}, {"measurement": "percentage of cells in G2-M phase", "setting": "MDA-MB-436 cells [4]; 1 µM, 24 h", "value": "23.97 ± 0.57", "unit": "%"}, {"measurement": "percentage of cells in G2-M phase", "setting": "MDA-MB-436 cells [4]; 1 µM, 48 h", "value": "31.07 ± 0.29", "unit": "%"}, {"measurement": "percentage of cells in G2-M phase", "setting": "MDA-MB-436 cells [4]; 1 µM, 72 h", "value": "36.88 ± 1.42", "unit": "%"}, {"measurement": "cell cycle effect", "setting": "MDA-MB-436 cells [4]; 0.1 and 1 µM", "value": "increased the percentage of cells in the G2-M phase"}, {"measurement": "cleaved PARP level", "setting": "[5]", "value": "only slightly increased and not statistically significant"}, {"measurement": "cleaved caspase-9 level", "setting": "[5]", "value": "only significantly increased in A-1 1 µM"}, {"measurement": "full-length PARP protein level", "setting": "[5]", "value": "significantly decreased levels"}, {"measurement": "full-length caspase-8 level", "setting": "[5]", "value": "no significant change"}, {"measurement": "survivin expression", "setting": "[5]", "value": "downregulated"}, {"measurement": "cleaved PARP level", "setting": "[6]", "value": "significantly increased"}, {"measurement": "cleaved caspase-9 level", "setting": "[6]", "value": "significantly increased"}, {"measurement": "full-length caspase-8 level", "setting": "[6]", "value": "no significant change"}, {"measurement": "survivin expression", "setting": "[6]", "value": "downregulated"}]}
